Test results published in ChEMBL document CHEMBL5233255, “Natural and nature-inspired stilbenoids as antiviral agents” (Eur J Med Chem, 2020).
In brackets after ≈: the same amount, converted by molar mass.

Columns and labels:
Human alphaherpesvirus 1 [1] = experiment: Antiviral activity against HSV-1 15577 infected in African green monkey Vero cells incubated for 3 days by plaque reduction assay; assay type: functional, organism-based; conditions: Human alphaherpesvirus 1, 15577, Vero, 72 h
Human alphaherpesvirus 1 [2] = experiment: Antiviral activity against HSV-1 clinical isolate infected in African green monkey Vero cells incubated for 3 days by plaque reduction assay; assay type: functional, organism-based; conditions: Human alphaherpesvirus 1, Vero, 72 h
Human alphaherpesvirus 2 = experiment: Antiviral activity against HSV-2 333 infected in African green monkey Vero cells incubated for 3 days by plaque reduction assay; assay type: functional, organism-based; conditions: Human alphaherpesvirus 2, 333, Vero, 72 h
[3] = Cytotoxicity against human Huh-7 cells assessed as reduction in cell viability incubated for 3 days by MTT assay; assay type: toxicity, cell-based; conditions: time 3 day
[4] = Selectivity index, ratio of CC50 for cytotoxicity against human Huh-7 cells to EC50 for Dengue virus 2 New Guinea C infected in human Huh-7 cells; assay type: toxicity, cell-based; conditions: read-out: Ratio CC50/EC50
dengue virus type 2 = experiment: Antiviral activity against Dengue virus 2 New Guinea C infected in human Huh-7 cells assessed as reduction in virus induced cytopathic effect incubated for 3 days by trypan blue staining based assay; assay type: functional, organism-based; conditions: Huh-7, 72 h
[5] = Cytotoxicity against MDCK cells assessed as reduction in cell viability incubated for 72 hrs by MTT assay; assay type: toxicity, cell-based, Canis lupus familiaris; conditions: dog
Influenza A virus [6] = experiment: Antiviral activity against influenza A virus A/PR/8/34 (H1N1) infected in MDCK cells preincubated 2 hrs followed by viral infection and measured after 24 hrs by MTT assay; assay type: functional, organism-based
[7] = Selectivity index, ratio of CC50 for cytotoxicity against MDCK cells to IC50 for influenza A virus A/Guangdong/243/72 ([…]) infected in MDCK cells; assay type: toxicity, cell-based; conditions: dog, read-out: Ratio CC50/IC50
Influenza A virus [8] = experiment: Antiviral activity against influenza A virus A/Guangdong/243/72 ([…]) infected in MDCK cells assessed as inhibition of virus-induced cytopathic effect; assay type: functional, organism-based
[9] = Inhibition of influenza B virus B/Jiangsu/10/2003 neuraminidase
[10] = Cytotoxicity against human MT4 cells expressing eGFP under control of HIV-1 LTR promoter sequence; assay type: toxicity, cell-based
[11] = Selectivity index, ratio of CC50 for cytotoxicity against human MT4 cells expressing eGFP under control of HIV-1 LTR promoter sequence to EC50 for antiviral activity against HIV-1 infected in human MT4 cells expressing eGFP under control of HIV-1 LTR promoter sequence; assay type: toxicity, cell-based; conditions: read-out: Ratio CC50/EC50
[12] = Inhibition of HIV-1 integrase catalysed 3' processing activity by densitometric analysis; set-up: species or system Human immunodeficiency virus 1
[13] = Inhibition of recombinant HIV-1 integrase catalysed strand transfer activity measured after 60 mins by electrochemiluminescent plate-based assay; set-up: species or system Human immunodeficiency virus 1
[14] = test system: Human immunodeficiency virus 1; experiment: Antiviral activity against VSV pseudo-typed HIV-1 infected in human MT4 cells expressing eGFP under control of HIV-1 LTR promoter sequence; assay type: functional, organism-based; conditions: Human immunodeficiency virus 1, MT4
Hepatitis C virus [15] = experiment: Antiviral activity against Hepatitis C virus genotype 1 infected in Bart79I RNA-transfected human Huh7.5 cells assessed as reduction in viral replication incubated for 24 to 72 hrs by RT-PCR assay; assay type: functional, organism-based, Hepacivirus hominis; conditions: genotype 1, Huh7.5
[16] = Cytotoxicity against HCV RNA-transfected human Huh7.5 cells assessed as reduction in cell viability; assay type: toxicity, cell-based, Huh-7.5; conditions: HCV RNA-transfected Huh7.5 cells
Hepatitis C virus [17] = experiment: Antiviral activity against Hepatitis C virus genotype 2 infected in human Huh7.5 cells assessed as reduction in viral replication by RT-PCR assay; assay type: functional, organism-based, Hepacivirus hominis; conditions: genotype 2, Huh7.5
Hepatitis C virus [18] = experiment: Antiviral activity against Hepatitis C virus genotype 2 infected in renilla luciferase-J6/JFH1 RNA-transfected human Huh7.5 cells assessed as reduction in viral replication incubated for 72 hrs by qRT-PCR analysis; assay type: functional, organism-based, Hepacivirus hominis; conditions: genotype 2, Huh7.5, 72 h
Enterovirus A71 = experiment: Antiviral activity against human EV71 infected in African green monkey Vero cells assessed as reduction in cytopathic effect by SRB assay; assay type: functional, organism-based; conditions: Enterovirus A
Coxsackievirus B3 = experiment: Antiviral activity against CVB3 infected in African green monkey Vero cells assessed as reduction in cytopathic effect by SRB assay; assay type: functional, organism-based; conditions: Enterovirus B
[19] = Cytotoxicity against human A549 cells assessed as reduction in cell viability by Alamar blue assay; assay type: toxicity, cell-based
[20] = Cytotoxicity against human Huh7.5 cells infected with Hepatitis C virus assessed as reduction in cell viability; assay type: toxicity, cell-based, Huh-7.5
Influenza A virus [21] = experiment: Antiviral activity against influenza A virus A/PR/8/34 (H1N1) infected in human A549 cells assessed as inhibition of RANTES production incubated for 48 hrs by ELISA; assay type: functional, organism-based; conditions: A549, 48 h
Hepatitis C virus [22] = experiment: Antiviral activity against Hepatitis C virus infected in human Huh7.5 cells assessed as reduction in viral replication; assay type: functional, organism-based, Hepacivirus hominis
[23] = Selectivity index, ratio of TC50 for cytotoxicity against HEK293T cells to EC50 for antiviral activity against HIV-1 infected in HEK293T cells; assay type: toxicity, cell-based; conditions: human
[24] = Cytotoxicity against HEK293T cells; assay type: toxicity, cell-based, HEK-293T; conditions: human, read-out: TC50 (the source's name)
[25] = test system: Human immunodeficiency virus 1; experiment: Antiviral activity against HIV-1 infected in HEK293T cells; assay type: functional, organism-based; conditions: Human immunodeficiency virus 1, HEK-293T
[26] = test system: Human immunodeficiency virus 1; experiment: Antiviral activity against HIV-1 infected in human C8166 cells assessed as inhibition of viral replication; assay type: functional, organism-based; conditions: Human immunodeficiency virus 1, C8166
Vero C1008 = experiment: Cytotoxicity against African green monkey Vero E6 cells infected with Middle East respiratory syndrome coronavirus assessed as reduction in cell viability at 250 uM by LDH assay relative to control; assay type: toxicity, cell-based; conditions: chlorocebus sabaeus, vero c1008, 250 µM
[27] = Therapeutic index, ratio of CC50 for cytotoxicity against human C8166 cells to EC50 for antiviral activity against HIV-1 infected in C8166 cells; assay type: toxicity, cell-based; conditions: read-out: Ratio CC50/EC50
rhinovirus A1B = experiment: Antiviral activity against HRV1B infected in human HeLa cells assessed as reduction in cytopathic effect by SRB assay; assay type: functional, organism-based; conditions: Rhinovirus A
[28] = Cytotoxicity against human C8166 cells assessed as inhibition of cell growth by MTT assay; assay type: toxicity, cell-based

Structure (SMILES): OC[C@H]1O[C@@H](Oc2cc(O)cc(-c3cc4ccc(O)cc4o3)c2)[C@H](O)[C@@H](O)[C@@H]1O
- IC50 (Human alphaherpesvirus 1 [1]): 2.5 µg/mL (≈ 6.18 µM)
- IC50 (Human alphaherpesvirus 1 [2]): 2.5 µg/mL (≈ 6.18 µM)
- IC50 (Human alphaherpesvirus 2): 2.5 µg/mL (≈ 6.18 µM)

Structure (SMILES): COc1cc(/C(C)=C/c2cc3ccccc3[nH]2)cc(OC)c1OC
- CC50 at 72 h [3]: 1.7 µM
- selectivity ratio [4]: 209
- EC50 (dengue virus type 2): 0.00812 µM

Structure (SMILES): O=C(O)c1ccccc1/N=N/c1ccc(O)cc1O
- CC50 at 72 h [5]: > 100 µg/mL
- EC50 (Influenza A virus [6]): 7.28 µg/mL (≈ 28.2 µM)

Structure (SMILES): Oc1ccc(/C=C/c2cc(O)c3c(c2)O[C@H](c2ccc(O)cc2O)[C@H]3c2cc(O)cc(O)c2)cc1
- selectivity ratio [7]: 57.4
- IC50 (Influenza A virus [8]): 0.67 µg/mL (≈ 1.42 µM)
- IC50 [9]: 26.3 µg/mL (≈ 55.9 µM)
- IC50 (Influenza A virus [6]): 0.67 µg/mL (≈ 1.42 µM)

Structure (SMILES): CCOc1ccc(/N=N/c2ccc(/C=C/c3ccc(/N=N/c4ccc(OCC)cc4)cc3S(=O)(=O)O)c(S(=O)(=O)O)c2)cc1
- CC50 [10]: > 100 µM
- selectivity ratio [11]: > 166
- IC50 [12]: 1.1 µM
- IC50 [13]: 0.5 µM
- EC50 [14]: 0.6 µM

Structure (SMILES): Oc1ccc(/C=C/c2cc(O)cc3c2C(c2cc(O)cc(O)c2)C(c2ccc(O)cc2)O3)cc1 (racemic)
- EC50 (Hepatitis C virus [15]): 1.7 µM
- CC50 [16]: > 10 µM
- EC50 (Hepatitis C virus [17]): 9.3 µM
- EC50 (Hepatitis C virus [18]): 0.2 µM

Structure (SMILES): Oc1ccc(/C=C\c2cc(O)cc(O)c2)cc1 [CIS-RESVERATROL]
- IC50 (Enterovirus A71): 37.6 µM
- IC50 (Coxsackievirus B3): 12.2 µM

Structure (SMILES): Oc1ccc(/C=C/c2cc(O)cc3c2[C@@H](c2cc(O)cc(O)c2)[C@H](c2ccc(O)cc2)O3)cc1 [EPSILON-VINIFERIN]
- EC50 (Hepatitis C virus [15]): 7 µM
- CC50 [19]: 54.7 µM
- CC50 [20]: > 10 µM
- CC50 [16]: > 10 µM
- EC50 (Hepatitis C virus [17]): 2.9 µM
- EC50 (Influenza A virus [21]): 10.1 µM
- EC50 (Hepatitis C virus [18]): 0.1 µM
- EC50 (Hepatitis C virus [22]): 0.159 µM

Structure (SMILES): CC(C)=CCc1c(O)cc(-c2cc3ccc(O)cc3o2)cc1O [MORACIN C]
- IC50 (Human alphaherpesvirus 1 [1]): 2.5 µg/mL (≈ 8.06 µM)
- IC50 (Human alphaherpesvirus 1 [2]): 2.5 µg/mL (≈ 8.06 µM)
- IC50 (Human alphaherpesvirus 2): 2.5 µg/mL (≈ 8.06 µM)

Structure (SMILES): Oc1cc(O)cc(-c2cc3ccc(O)cc3o2)c1 [MORACIN M]
- IC50 (Human alphaherpesvirus 1 [1]): 2.5 µg/mL (≈ 10.3 µM)
- IC50 (Human alphaherpesvirus 1 [2]): 2.5 µg/mL (≈ 10.3 µM)
- IC50 (Human alphaherpesvirus 2): 2.5 µg/mL (≈ 10.3 µM)

Structure (SMILES): CC1=C[C@@H](c2c(O)cc(-c3cc4ccc(O)cc4o3)cc2O)[C@@H](C(=O)c2ccc(O)cc2O)[C@H](c2ccc(O)cc2O)C1 [MULBERROFURAN C]
- IC50 (Human alphaherpesvirus 1 [1]): 2.5 µg/mL (≈ 4.31 µM)
- IC50 (Human alphaherpesvirus 1 [2]): 2.5 µg/mL (≈ 4.31 µM)
- IC50 (Human alphaherpesvirus 2): 2.5 µg/mL (≈ 4.31 µM)

Structure (SMILES): Oc1cc(O)cc(/C=C/c2ccc(O)c(O)c2)c1 [PICEATANNOL]
- selectivity ratio [23]: > 18.7
- CC50 [24]: > 400 µM
- EC50 [25]: 21.4 µM

Structure (SMILES): Oc1ccc(/C=C/c2cc(O)cc(O)c2)cc1 [RESVERATROL]
- EC50 [26]: 4.37 µg/mL (≈ 19.1 µM)
- Activity (Vero C1008): 25%
- CC50 [19]: 52.6 µM
- selectivity ratio [27]: 8.14
- IC50 (Influenza A virus [8]): > 22.2 µg/mL
- CC50 [24]: > 300 µM
- EC50 [25]: > 75 µM
- IC50 (rhinovirus A1B): 29.7 µM
- EC50 (Influenza A virus [21]): 28.4 µM
- CC50 [28]: 35.6 µg/mL (≈ 156 µM)

Structure (SMILES): Oc1ccc([C@H]2c3c(O)cc(O)cc3[C@H]3c4c(cc(O)cc4[C@@H]2c2cc(/C=C/c4cc(O)cc5c4[C@H](c4cc(O)cc(O)c4)[C@@H](c4ccc(O)cc4)O5)ccc2O)O[C@@H]3c2ccc(O)cc2)cc1 [VITISIN A]
- CC50 [19]: 22.4 µM
- CC50 [20]: > 10 µM
- EC50 (Influenza A virus [21]): 0.27 µM
- EC50 (Hepatitis C virus [22]): 0.035 µM
